The values that follow are results of earlier work, collected in article PMC10537421, “Co-Dispersion Delivery Systems with Solubilizing Carriers Improving the Solubility and Permeability of Cannabinoids (Cannabidiol, Cannabidiolic Acid, and Cannabichromene) from Cannabis sativa (Henola Variety) Inflorescences” (Pharmaceutics, 2023).

Each structure is given as a SMILES string. Like-named read-outs stand apart in the source and are kept apart here.

For series [1] the following is noted: for CBD released: SIF and SGF.
The conditions of series [2]: for bioavailability: oral administration; for bioavailability after inhalation: smoking or vaporizing.

For orientation: pKa means the pH at which an ionisable group is half protonated. With `C=C(C)[C@@H]1CCC(C)=C[C@H]1c1c(O)cc(CCCCC)cc1O` [CBD, cannabidiol], the pKa is 9.3–10.3. Moreover, the CBD released entry in series [1] (1 h) was “less than 3%”. The CBD released result in series [1] (48 h) was “less than 10%”. Further, the “CBD detected after SIF digestion (bioaccessibility)” value in series [1] (simulated intestinal fluid) is 29%. In series [2], the “bioavailability after sublingual administration” value was 13–19%, the bioavailability entry is reported as “≈ 6%” and the bioavailability after inhalation is listed as 11–45%.
Consider `C=C(C)[C@@H]1CCC(C)=C[C@H]1c1c(O)cc(CCCCC)c(C(=O)O)c1O` [CBDA, cannabidiolic acid], for which the pKa (approximate) was about 2.9.
As to `CCCCCc1cc(O)c2c(c1)OC(C)(CCC=C(C)C)C=C2` (stereo not drawn) [CBC, cannabichromene], the pKa (approximate) is on record as 9.5–10.3.
Take `CCCCCc1cc(O)c2c(c1)OC(C)(C)[C@@H]1CCC(C)=C[C@@H]21` [THC, tetrahydrocannabinol]: in series [2], the “bioavailability after sublingual administration” value is 13–14%, the bioavailability is on record as 4–12% and the bioavailability after inhalation was 10% to 35%.
